Assay results from US12396461B2, “Functional peptides having antimicrobial activity against phytopathogenic microorganisms” (TOYOTA JIDOSHA KABUSHIKI KAISHA, priority 2019, dated 2025).
Where “and” joins values, the source holds several entries; their conditions need not be identical. Equal entries are not always repeated. Where two headings read alike, the source gives them in different places.

Legend:
Format in all cases: cell-based
Botrytis cinerea = tested on: Botrytis cinerea; set-up: key to Plate antimicrobial activity test Botrytis cinerea, level: a case where hyphae extended to the entire well and no antimicrobial activity was found is defined as “level 0,”; a case where hyphae extended to less than a half of the well and thus the peptide inhibited the growth of the hyphae is defined as “level 1,”; a case where ungerminated spores were present and the peptide partially inhibited the germination is defined as “level 2,”; a case where all spores were ungerminated and the peptide completely inhibited the germination is defined as “level 3.”; details: 25° C. for 1 day or 2 days, microscopic observation
[1] = tested on: Colletotrichum destructivum; set-up: key to Plate antimicrobial activity test Colletotrichum destructivum, level: a case where hyphae extended to the entire well and no antimicrobial activity was found is defined as “level 0,”; a case where hyphae extended to less than a half of the well and thus the peptide inhibited the growth of the hyphae is defined as “level 1,”; a case where ungerminated spores were present and the peptide partially inhibited the germination is defined as “level 2,”; a case where all spores were ungerminated and the peptide completely inhibited the germination is defined as “level 3.”; details: 25° C. for 1 day or 2 days, microscopic observation
[2] = tested on: Colletotrichum orbiculare; set-up: key to Plate antimicrobial activity test Colletotrichum orbiculare, level: a case where hyphae extended to the entire well and no antimicrobial activity was found is defined as “level 0,”; a case where hyphae extended to less than a half of the well and thus the peptide inhibited the growth of the hyphae is defined as “level 1,”; a case where ungerminated spores were present and the peptide partially inhibited the germination is defined as “level 2,”; a case where all spores were ungerminated and the peptide completely inhibited the germination is defined as “level 3.”; details: 25° C. for 1 day or 2 days, microscopic observation
Fusarium oxysporum = tested on: Fusarium oxysporum; set-up: key to Plate antimicrobial activity test Fusarium oxysporum, level: a case where hyphae extended to the entire well and no antimicrobial activity was found is defined as “level 0,”; a case where hyphae extended to less than a half of the well and thus the peptide inhibited the growth of the hyphae is defined as “level 1,”; a case where ungerminated spores were present and the peptide partially inhibited the germination is defined as “level 2,”; a case where all spores were ungerminated and the peptide completely inhibited the germination is defined as “level 3.”
Pyricularia oryzae = tested on: Pyricularia oryzae; set-up: key to Plate antimicrobial activity test Pyricularia oryzae, level: a case where hyphae extended to the entire well and no antimicrobial activity was found is defined as “level 0,”; a case where hyphae extended to less than a half of the well and thus the peptide inhibited the growth of the hyphae is defined as “level 1,”; a case where ungerminated spores were present and the peptide partially inhibited the germination is defined as “level 2,”; a case where all spores were ungerminated and the peptide completely inhibited the germination is defined as “level 3.”; details: 25° C. for 1 day or 2 days, microscopic observation

Substance	Plate antimicrobial activity test Botrytis cinerea, level (Botrytis cinerea; peptide 1 μM)	Plate antimicrobial activity test Botrytis cinerea, level (Botrytis cinerea; peptide 10 μM)	Plate antimicrobial activity test Botrytis cinerea, level (Botrytis cinerea; peptide 100 μM)	Plate antimicrobial activity test Colletotrichum destructivum, level ([1]; peptide 1 μM)	Plate antimicrobial activity test Colletotrichum destructivum, level ([1]; peptide 10 μM)	Plate antimicrobial activity test Colletotrichum destructivum, level ([1]; peptide 100 μM)	Plate antimicrobial activity test Colletotrichum orbiculare, level ([2]; peptide 1 μM)	Plate antimicrobial activity test Colletotrichum orbiculare, level ([2]; peptide 10 μM)	Plate antimicrobial activity test Colletotrichum orbiculare, level ([2]; peptide 100 μM)	Plate antimicrobial activity test Fusarium oxysporum, level (Fusarium oxysporum)	Plate antimicrobial activity test Pyricularia oryzae, level (Pyricularia oryzae; peptide 1 μM)	Plate antimicrobial activity test Pyricularia oryzae, level (Pyricularia oryzae; peptide 10 μM)	Plate antimicrobial activity test Pyricularia oryzae, level (Pyricularia oryzae; peptide 100 μM)
EELMVVAEEEAYRRVRGGMGW (listed as Solanum lycopersicum) [TsORF6-3, chemically synthesized region of TsORF6]	0	0	0	0	0	0	0	0	0	0	0	0	0
IVVKT (listed as Solanum lycopersicum) [TsORF6-1-5aa-5, partial peptide of TsORF6-1, 5 amino acid residues]	0	0	0	0	0	0	0	0	0	0	0	0	0
IVVKTKVK (listed as Solanum lycopersicum) [TsORF6-1-8aa-5, partial peptide of TsORF6-1, 8 amino acid residues]	0	0	0	0	0	0	0	0	0	0	0	0	0
KKVAKMMV (listed as Solanum lycopersicum) [TsORF6-1-8aa-14, partial peptide of TsORF6-1, 8 amino acid residues]	0	0	0	0	0	0	0	0	0	0	0	0	0
KMMVKEDEKNKRVITMKEELMV (listed as Solanum lycopersicum) [TsORF6-2, chemically synthesized region of TsORF6]	0	0	2	0	0	0	0	0	0	1 and 0	0	0	0
KNKKV (listed as Solanum lycopersicum) [TsORF6-1-5aa-12, partial peptide of TsORF6-1, 5 amino acid residues]	0	0	0	0	0	0	0	0	0	0	0	0	0
KNKKVAKM (listed as Solanum lycopersicum) [TsORF6-1-8aa-12, partial peptide of TsORF6-1, 8 amino acid residues]	0	0	0	0	0	0	0	0	0	0	0	0	0
KTKVK (listed as Solanum lycopersicum) [TsORF6-1-5aa-8, partial peptide of TsORF6-1, 5 amino acid residues]	0	0	0	0	0	0	0	0	0	0	0	0	0
